Assay results as given in patent US6596719B1 (Actelio Pharmaceuticals Ltd., priority 1999, dated 2003).
Read-outs that look alike come from different tables or passages of the source.

Assays:
[1] = biological target: T1, human recombinant ETA receptors (Homo sapiens, UniProt P25101); assay: Inhibition of endothelin binding to membranes from CHO cells carrying human ET receptors (ETA)
T1 construct: expressed in transfected cells; host or cells: CHO cells (microsomal membranes)
T1 sequence (P25101 21-427): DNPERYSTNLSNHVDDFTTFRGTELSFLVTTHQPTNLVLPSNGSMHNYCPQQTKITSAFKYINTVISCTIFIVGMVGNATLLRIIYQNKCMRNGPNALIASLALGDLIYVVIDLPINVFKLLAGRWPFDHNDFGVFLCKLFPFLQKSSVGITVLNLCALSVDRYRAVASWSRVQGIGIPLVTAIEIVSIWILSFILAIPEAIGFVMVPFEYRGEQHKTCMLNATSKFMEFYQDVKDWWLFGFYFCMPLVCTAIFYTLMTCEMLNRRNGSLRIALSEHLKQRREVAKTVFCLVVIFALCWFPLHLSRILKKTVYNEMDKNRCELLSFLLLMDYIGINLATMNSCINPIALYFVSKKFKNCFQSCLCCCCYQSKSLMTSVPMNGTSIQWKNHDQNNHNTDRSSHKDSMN

[2] = biological target: T2, human recombinant ETB receptors (Homo sapiens, UniProt P24530); assay: Inhibition of endothelin binding to membranes from CHO cells carrying human ET receptors (ETB)
T2 construct: expressed in transfected cells; host or cells: CHO cells (microsomal membranes)
T2 sequence (P24530 27-442): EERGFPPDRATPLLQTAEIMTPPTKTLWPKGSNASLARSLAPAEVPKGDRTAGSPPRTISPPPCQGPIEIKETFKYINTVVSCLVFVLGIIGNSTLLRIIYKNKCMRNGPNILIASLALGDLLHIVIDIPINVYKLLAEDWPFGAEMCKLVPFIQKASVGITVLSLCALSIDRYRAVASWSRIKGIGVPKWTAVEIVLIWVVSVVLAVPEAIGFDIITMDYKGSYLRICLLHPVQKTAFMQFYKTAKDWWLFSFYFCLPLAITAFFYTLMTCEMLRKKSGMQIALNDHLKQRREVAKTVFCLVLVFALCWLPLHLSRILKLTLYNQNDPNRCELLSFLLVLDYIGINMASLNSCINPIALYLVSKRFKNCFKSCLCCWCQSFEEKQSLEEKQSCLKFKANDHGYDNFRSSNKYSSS
Method: 1) Inhibition of Endothelin Binding to Membranes from CHO Cells Carrying Human ET Receptors:
For competition binding studies, membranes of CHO cells expressing human recombinant ETA or ETB receptors were used. Microsomal membranes from recombinant CHO cells were prepared and the binding assay made as previously described (Breu V., et al, FEBS Lett 1993; 334:210).
The assay was performed in 200 uL 50 mM Tris/HCl buffer, pH 7.4, including 25 mM MnCl2, 1 mM EDTA and 0.5% (w/v) BSA in polypropylene microtiter plates. […]. […] After two h, the membranes were filtered on, filterplates containing GF/C filters (Unifilterplates from Canberra Packard S. A. Zürich, Switzerland). To each well, 50 uL of scintillation cocktail was added (MicroScint 20, Canberra Packard S. A. Zürich, Switzerland) and the filter plates counted in a microplate counter (TopCount, Canberra Packard S. A. Zürich, Switzerland).
All the test compounds were dissolved, diluted and added in DMSO. […] […].

[3] = membranes of CHO cells expressing human recombinant ETA receptors, 8 pM [125I]ET-1, 2 h at 20° C.
[4] = membranes of CHO cells expressing human recombinant ETB receptors, 8 pM [125I]ET-1, 2 h at 20° C.

Molecule | IC50 [1, 3] [nM] | IC50 [2, 4] [nM] | IC50 [1] [nM] | IC50 [2] [nM]
5-i-propyl-N-[6-(2-ethanesulfonylamino-ethoxy)-5-(o-methoxyphenoxy)-2-cyclopropyl-pyrimidin-4-yl]-pyridine-2-sulfonamide [Example 38] | 80 | 84 | – | –
5-isopropyl-N-[6-(2-(1-propanesulfonylamino)-ethoxy)-5-(o-methoxyphenoxy)-2-(2-pyridyl)-4-pyrimidinyl]-2-pyridine sulfonamide [Example 72] | 153 | 279 | – | –
COc1ccccc1Oc1c(NS(=O)(=O)c2ccc(C(C)(C)C)cc2)nc(-c2ncccn2)nc1OCCNS(=O)(=O)C(F)(F)F [Example 5, p-tert.-butyl-N-[6-(ethoxy-2-trifluoromethanesulfonamido)-5-(o-methoxyphenoxy)-2-(2-pyrimidinyl)-4-pyrimidinyl]benzene-sulfonamide] | – | – | 5560 | 356
COc1ccccc1Oc1c(NS(=O)(=O)c2ccc(C(C)(C)C)cc2)nc(-c2ncccn2)nc1OCCNS(=O)(=O)c1ccc(C)cc1 [Example 6, p-tert.-butyl-N-[6-(ethoxy-2-p-toluenesulfonamido)-5-(o-methoxyphenoxy)-2-(2-pyrimidinyl)-4-pyrimidinyl]benzene-sulfonamide] | 8300 | 420 | – | –
CCS(=O)(=O)NCCOc1nc(-c2ncccn2)nc(NS(=O)(=O)c2ccc(C(C)(C)C)cc2)c1Oc1ccccc1OC [Example 8, p-tert.-butyl-N-[6-(ethoxy-2-ethanesulfonamido)-5-(o-methoxyphenoxy)-2-(2-pyrimidinyl)-4-pyrimidinyl]benzene-sulfonamide] | 160 | 130 | – | –
COc1ccccc1Oc1c(NS(=O)(=O)c2ccc(C(C)C)cn2)nc(-c2ccncc2)nc1OCCNS(C)(=O)=O [Example 14, 5-i.-propyl-N-[6-(ethoxy-2-methanesulfonamido)-5-(o-methoxyphenoxy)-2-(4-pyridyl)-4-pyrimidinyl]pyridine-2-sulfonamide] | – | – | 518 | 451
CCCCS(=O)(=O)NCCOc1nc(-c2ncccn2)nc(NS(=O)(=O)c2ccc(C(C)(C)C)cc2)c1Oc1ccccc1OC [Example 17, p-tert.-butyl-N-[6-(ethoxy-2-(1-butanesulfonamido))-5-(o-methoxyphenoxy)-2-(2-pyrimidinyl)-4-pyrimidinyl]benzene-sulfonamide] | – | – | 1100 | 117
COc1ccccc1Oc1c(NS(=O)(=O)c2ccc(C(C)C)cn2)nc(-c2cc(OC)c(OC)c(OC)c2)nc1OCCNS(=O)(=O)C(C)C [Example 18] | – | – | 209 | 1050
COc1ccccc1Oc1c(NS(=O)(=O)c2ccc(C(C)C)cn2)nc(C)nc1OCCNS(=O)(=O)c1ccc(C)cc1 [Example 21, 5-i.-propyl-N-[6-(ethoxy-2-p-toluenesulfonamido)-5-(o-methoxyphenoxy)-2-methyl-4-pyrmidinyl]pyridine-2-sulfonamide] | – | – | 881 | 21.8
COc1ccccc1Oc1c(NS(=O)(=O)c2ccc(C(C)C)cn2)nc(C)nc1OCCNS(C)(=O)=O [Example 23, 5-i.-propyl-N-[6-(ethoxy-2-methanesulfonamido)-5-(o-methoxyphenoxy)-2-methyl-4-pyrimidinyl]pyridine-2-sulfonamide] | – | – | 76.1 | 52.7
COc1ccccc1Oc1c(NS(=O)(=O)c2ccc(C(C)(C)C)cc2)ncnc1OCCNS(=O)(=O)c1ccc(Br)cc1 [Example 27, 4-tert.-butyl-N-{6-[2-(4-bromobenzenesulfonyl-amino)-ethoxy]-5-(o-methoxy-phenoxy)-pyrimidin-4-yl}-benzenesulfonamide] | – | – | 3630 | 995
COc1ccccc1Oc1c(NS(=O)(=O)c2ccc(C(C)(C)C)cc2)ncnc1OCCNS(=O)(=O)c1ccc(C)cc1 [Example 28, 4-tert.-butyl-N-{6-[2-(4-methylbenzenesulfonyl-amino)-ethoxy]-5-(o-methoxy-phenoxy)-pydmidin-4-yl}-benzenesulfonamide] | – | – | 3710 | 1040
COc1ccccc1Oc1c(NS(=O)(=O)c2ccc(C(C)(C)C)cc2)ncnc1OCCNS(=O)(=O)c1cccs1 [Example 29, 4-tert.-butyl-N-{6-[2-(2-thiophenesulfonyl-amino)-ethoxy]-5-(o-methoxy-phenoxy)-pydmidin-4-yl}-benzenesulfonamide] | – | – | 1250 | 235
CCCS(=O)(=O)NCCOc1ncnc(NS(=O)(=O)c2ccc(C(C)(C)C)cc2)c1Oc1ccccc1OC [Example 30, 4-tert.-butyl-N-{6-[2-(1-propanesulfonyl-amino)-ethoxy]-5-(o-methoxy-phenoxy)-pyrimidin-4-yl}-benzenesulfonamide] | – | – | 484 | 288
CCS(=O)(=O)NCCOc1ncnc(NS(=O)(=O)c2ccc(C(C)(C)C)cc2)c1Oc1ccccc1OC [Example 31, 4-tert.-butyl-N-{6-[2-(ethanesulfonylamino)-ethoxy]-5-(o-methoxy-phenoxy)-pydmidin-4-yl}-benzenesulfonamide] | – | – | 409 | 735
CCS(=O)(=O)NCCOc1nc(SC)nc(NS(=O)(=O)c2ccc(C(C)(C)C)cc2)c1Oc1ccccc1OC [Example 36f, 4-tert.-butyl-N-[6-(2-ethanesulfonylamino-ethoxy)-5-(o-methoxyphenoxy)-2-methylsulfanyl-pyrimidin-4-yl]-benzenesulfonamide] | – | – | 478 | 1210
CCS(=O)(=O)NCCOc1nc(S(C)(=O)=O)nc(NS(=O)(=O)c2ccc(C(C)(C)C)cc2)c1Oc1ccccc1OC [Example 36g] | – | – | 121 | 93
COc1ccccc1Oc1c(NS(=O)(=O)c2ccc(C(C)(C)C)cc2)nc(SC)nc1OCCNS(=O)(=O)c1ccc(C)cc1 [Example 37, 4-tert.-butyl-N-[6-(2-p-toluenesulfonylamino-ethoxy)-5-(o-methoxyphenoxy)-2-methylsulfanyl-pyrimidin-4-yl]-benzenesulfonamide] | – | – | 5680 | 604
COc1ccccc1Oc1c(NS(=O)(=O)c2ccc(C(C)C)cn2)nc(C2CC2)nc1OCCNS(=O)(=O)c1ccc(C)cc1 [Example 39, 5-i-propyl-N-[6-(2-(4-methylbenzene)-sulfonylamino-ethoxy)-5-(o-methoxyphenoxy)-2-cyclopropyl-pyrimidin-4-yl]-pyridine-2-sulfonamide] | 1050 | 81 | – | –
COc1ccccc1Oc1c(NS(=O)(=O)c2ccc(C(C)(C)C)cc2)nc(C2CC2)nc1OCCNS(=O)(=O)C(C)C [Example 40, 4-tert.-butyl-N-[6-(2-(2-propane)-sulfonylamino-ethoxy)-5-(o-methoxyphenoxy)-2-cyclopropyl-pyrimidin-4-yl]-benzene-sulfonamide] | – | – | 76 | 87
COc1ccccc1Oc1c(NS(=O)(=O)c2ccc(C(C)(C)C)cc2)nc(C2CC2)nc1OCCNS(=O)(=O)c1ccc(C)cc1 [Example 41] | 4900 | 299 | – | –
COc1ccccc1Oc1c(NS(=O)(=O)c2ccc(C(C)C)cn2)nc(N2CCOCC2)nc1OCCNS(=O)(=O)c1cccs1 [Example 42, 5-isopropyl-N-[6-(2-(2-thiophensulfonyl)-amino-ethoxy)-5-(o-methoxyphenoxy)-2-(N-morpholino)-4-pyrimidinyl]-2-pyridine sulfonamide] | 587 | 99 | – | –
COc1ccccc1Oc1c(NS(=O)(=O)c2ccc(C)cn2)nc(N2CCOCC2)nc1OCCNS(=O)(=O)c1cccs1 [Example 58, 5-methyl-N-[6-(2-(thiophene-2-sulfonylamino)-ethoxy)-5-(o-methoxyphenoxy)-2-(N-morpholino)-4-pyrimidinyl]-2-pyridine sulfonamide] | – | 447 | – | –
COc1ccccc1Oc1c(NS(=O)(=O)c2ccc(C(C)(C)C)cc2)nc(-c2ncccn2)nc1OCCCNS(=O)(=O)c1cccs1 [Example 90, 4-tert.-butyl-N-[6-(3-(2-thiophenesulfonylamino)-propoxy)-5-(o-methoxyphenoxy)-2-pyrimidinyl-4-pyrimidinyl]-benzene-sulfonamide] | – | – | – | 4.1
